Test results published in US8431541B2, “Alpha-amylase inhibitors: the montbretins and uses thereof” (The University of British Columbia, priority 2007, dated 2013).

Target: T1, α-mannosidase (Jack Bean) (Canavalia ensiformis, UniProt C0HJB3)
T1 sequence (C0HJB3 1-981): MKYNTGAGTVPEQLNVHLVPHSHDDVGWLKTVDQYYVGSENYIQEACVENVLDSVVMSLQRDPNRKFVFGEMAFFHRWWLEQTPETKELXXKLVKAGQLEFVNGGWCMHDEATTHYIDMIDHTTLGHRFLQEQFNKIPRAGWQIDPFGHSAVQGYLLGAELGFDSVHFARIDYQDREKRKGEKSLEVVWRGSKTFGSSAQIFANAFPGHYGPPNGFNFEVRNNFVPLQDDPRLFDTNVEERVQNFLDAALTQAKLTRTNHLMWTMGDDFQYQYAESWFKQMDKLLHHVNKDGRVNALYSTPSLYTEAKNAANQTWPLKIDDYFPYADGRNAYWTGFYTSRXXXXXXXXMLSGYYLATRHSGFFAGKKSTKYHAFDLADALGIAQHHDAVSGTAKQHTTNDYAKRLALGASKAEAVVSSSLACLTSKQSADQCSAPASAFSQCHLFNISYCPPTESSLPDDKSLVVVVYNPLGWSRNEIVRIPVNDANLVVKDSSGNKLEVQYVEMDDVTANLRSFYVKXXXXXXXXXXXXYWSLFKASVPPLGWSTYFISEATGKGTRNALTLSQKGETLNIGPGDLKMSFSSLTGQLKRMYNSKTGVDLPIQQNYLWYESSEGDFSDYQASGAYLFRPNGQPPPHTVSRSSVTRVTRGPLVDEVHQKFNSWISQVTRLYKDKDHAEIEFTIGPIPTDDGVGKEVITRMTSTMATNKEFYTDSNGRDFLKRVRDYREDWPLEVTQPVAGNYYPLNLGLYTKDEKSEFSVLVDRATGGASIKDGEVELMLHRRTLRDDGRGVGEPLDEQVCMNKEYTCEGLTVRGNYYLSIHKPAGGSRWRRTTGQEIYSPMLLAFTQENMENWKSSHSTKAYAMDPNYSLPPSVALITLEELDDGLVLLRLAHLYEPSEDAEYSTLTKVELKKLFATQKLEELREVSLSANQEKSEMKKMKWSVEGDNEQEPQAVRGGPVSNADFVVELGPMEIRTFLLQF
Assay: Glycosidase specificity: α-mannosidase
Type: biochemical
Settings: at 0.1 μM Montbretin A; read-out: RA (%), Residual Enzyme Activity

CC1O[C@@H](O[C@@H]2CO[C@@H](Oc3c(O)cc(-c4oc5cc(O)cc(O)c5c(=O)c4O[C@@H]4OC(C)[C@H](O)[C@H](O)C4O[C@@H]4OC(COC(=O)/C=C/c5ccc(O)c(O)c5)[C@@H](O)[C@@H](O)C4O[C@@H]4OC(CO)[C@@H](O)[C@@H](O)C4O)cc3O)C(O)[C@@H]2O)C(O)[C@@H](O)[C@H]1O (stereo partly shown) [Montbretin A, montbretin A]
remaining activity at 0.1 µM: 100%
